Experimental data reported in US20080021026A1, “BENZOTHIOPHENE INHIBITORS OF RHO KINASE” (priority 2006, published 2008).
Like-named read-outs stand apart in the source and are kept apart here.

Columns and labels:
[1] = biological target: T1, recombinant N-terminal GST-tagged human Rho kinase 1 (ROCK1, amino acids 1-535) (Homo sapiens, UniProt Q13464); assay: In vitro Rho kinase assay (luciferase-based ATP consumption), ROCK1; format: biochemical
T1 construct: ROCK1, amino acids 1-535; purchased Invitrogen Inc. PV-3691
Procedure, shortened: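 GST-ROCK1 (aa 1-535) at 0.82 μg/ml with 100 μg/ml S6 peptide and 3 µM ATP in Tris pH 7.5 buffer with MgCl2, CaCl2, EGTA, BSA; compound added after reaction start, 2 h at 30 °C. Remaining ATP read by luciferase luminescence; efficacy as percent of H-1152P positive control.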

[2] = biological target: T2, recombinant N-terminal GST-tagged human Rho kinase 2 (ROCK2, amino acids 1-552) (Homo sapiens, UniProt O75116); assay: In vitro Rho kinase assay (luciferase-based ATP consumption), ROCK2; format: biochemical
T2 construct: ROCK2, amino acids 1-552; purchased Invitrogen Inc. PV3759
Procedure, shortened: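 GST-ROCK2 (aa 1-552, 0.82 μg/ml) with 100 μg/ml S6 peptide and 3 µM ATP in Tris pH 7.5 buffer with MgCl2/CaCl2/EGTA/BSA, compound added just after reaction start, 2 h at 30 °C. Remaining ATP read by luciferase luminescence. Efficacy expressed as percentage of H-1152P positive control.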

[3] = recombinant GST-tagged human ROCK1, luciferase-based ATP consumption, read-out: ROCK1 IC50
[4] = recombinant GST-tagged human ROCK2, luciferase-based ATP consumption, read-out: ROCK2 IC50

T2 sequence (O75116 1-552): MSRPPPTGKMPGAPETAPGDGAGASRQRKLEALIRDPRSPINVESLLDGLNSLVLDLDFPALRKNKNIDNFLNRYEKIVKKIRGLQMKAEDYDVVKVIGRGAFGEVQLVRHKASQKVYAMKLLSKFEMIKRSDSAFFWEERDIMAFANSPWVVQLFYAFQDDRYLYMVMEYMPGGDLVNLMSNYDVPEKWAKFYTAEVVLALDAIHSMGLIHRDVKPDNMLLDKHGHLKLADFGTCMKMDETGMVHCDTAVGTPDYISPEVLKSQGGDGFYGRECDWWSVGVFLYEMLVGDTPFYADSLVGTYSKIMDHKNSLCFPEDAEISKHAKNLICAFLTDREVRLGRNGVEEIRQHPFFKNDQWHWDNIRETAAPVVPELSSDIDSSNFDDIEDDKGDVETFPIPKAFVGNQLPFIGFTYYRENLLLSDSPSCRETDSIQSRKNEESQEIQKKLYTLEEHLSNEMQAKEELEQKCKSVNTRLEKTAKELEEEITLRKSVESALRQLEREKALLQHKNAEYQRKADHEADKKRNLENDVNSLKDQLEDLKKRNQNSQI
T1 sequence (Q13464 1-535): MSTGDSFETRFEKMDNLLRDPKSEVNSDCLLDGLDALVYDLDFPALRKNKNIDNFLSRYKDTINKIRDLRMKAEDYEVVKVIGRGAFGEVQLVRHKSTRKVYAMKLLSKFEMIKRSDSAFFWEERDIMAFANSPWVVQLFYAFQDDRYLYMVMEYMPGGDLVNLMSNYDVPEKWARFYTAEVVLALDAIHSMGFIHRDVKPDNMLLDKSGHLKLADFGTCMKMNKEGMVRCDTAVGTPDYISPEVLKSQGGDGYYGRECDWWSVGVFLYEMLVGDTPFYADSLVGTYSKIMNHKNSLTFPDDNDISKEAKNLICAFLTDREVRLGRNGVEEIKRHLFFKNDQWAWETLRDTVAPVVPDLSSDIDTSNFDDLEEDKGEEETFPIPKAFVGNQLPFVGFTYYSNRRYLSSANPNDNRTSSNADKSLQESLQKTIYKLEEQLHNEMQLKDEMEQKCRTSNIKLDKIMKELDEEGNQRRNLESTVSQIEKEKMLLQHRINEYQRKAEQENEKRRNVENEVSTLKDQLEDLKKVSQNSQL

Row | IC50 [1, 3] [µM] | IC50 [2, 4] [µM] | Compound | IC50 ([1]; ROCK1 IC50, recombinant GST-tagged human ROCK1, luciferase-based ATP consumption) [µM] | IC50 ([2]; ROCK2 IC50, recombinant GST-tagged human ROCK2, luciferase-based ATP consumption) [µM]
1 | > 5 | < 5 | COC(=O)c1cccc(Cc2ccc3sc(-c4ccnc(N)n4)c(C)c3c2)c1 [Example 42, Methyl 3-((2-(2-aminopyrimidin-4-yl)-3-methylbenzo[b]thiophen-5-yl)methyl)benzoate] | – | –
2 | < 5 | < 5 | Cc1c(-c2ccnc(N)n2)sc2ccc(Br)cc12 [Example 13, 4-(5-Bromo-3-methylbenzo[b]thiophen-2-yl)pyrimidin-2-amine] | – | –
3 | < 5 | < 5 | Cc1c(-c2ccnc(N)n2)sc2ccc(CNC(=O)Cc3ccc(O)c(F)c3)cc12 [Example 186, Cc1c(sc2ccc(CNC(═O)Cc3ccc(O)c(F)c3)cc12)-c4ccnc(N)n4] | – | –
4 | < 5 | < 5 | Cc1c(-c2ccnc(N)n2)sc2ccc(CNC(=O)c3cc4ccccc4cc3O)cc12 [Example 238, Cc1c(sc2ccc(CNC(═O)c3cc4ccccc4cc3O)cc12)-c5ccnc(N)n5] | – | –
5 | < 5 | < 5 | Cc1c(-c2ccnc(N)n2)sc2ccc(CNC(=O)c3ccc4cc(O)ccc4c3)cc12 [Example 236, Cc1c(sc2ccc(CNC(═O)c3ccc4cc(O)ccc4c3)cc12)-c5ccnc(N)n5] | – | –
6 | > 5 | < 5 | Cc1c(-c2ccnc(N)n2)sc2ccc(CNC(=O)c3ccc(F)cc3)cc12 [Example 123, Cc1c(sc2ccc(CNC(═O)c3ccc(F)cc3)cc12)-c4ccnc(N)n4] | – | –
7 | > 5 | > 5 | Cc1cccc(C(=O)NCc2ccc3sc(-c4ccnc(N)n4)c(C)c3c2)c1 [Example 118, Cc1cccc(c1)C(═O)NCc2ccc3sc(c(C)c3c2)-c4ccnc(N)n4] | – | –
8 | > 5 | < 5 | Cc1c(-c2ccnc(N)n2)sc2ccc(CNC(=O)c3ccc(I)cc3)cc12 [Example 319, Cc1c(sc2ccc(CNC(═O)c3ccc(I)cc3)cc12)-c4ccnc(N)n4] | – | –
9 | > 5 | > 5 | Nc1nccc(-c2sc3ccc(Cl)cc3c2-c2ccccc2)n1 [Example 17, 4-(5-Chloro-3-phenylbenzo[b]thiophen-2-yl)pyrimidin-2-amine] | – | –
10 | > 5 | < 5 | Cc1cccc([N+](=O)[O-])c1C(=O)NCc1ccc2sc(-c3ccnc(N)n3)c(C)c2c1 [Example 215, Cc1cccc(c1C(═O)NCc2ccc3sc(c(C)c3c2)-c4ccnc(N)n4)[N+]([O−])═O] | – | –
11 | < 5 | < 5 | Cc1c(-c2ccnc(N)n2)sc2ccc(CNC(=O)c3cccc(C#N)c3)cc12 [Example 127, Cc1c(sc2ccc(CNC(═O)c3cccc(c3)C#N)cc12)-c4ccnc(N)n4] | – | –
12 | < 5 | < 5 | COc1cc(OC)c(C(=O)NCc2ccc3sc(-c4ccnc(N)n4)c(C)c3c2)c(OC)c1 [Example 277, COc1cc(OC)c(C(═O)NCc2ccc3sc(c(C)c3c2)-c4ccnc(N)n4)c(OC)c1] | – | –
13 | < 5 | < 5 | COc1cccc(O)c1C(=O)NCc1ccc2sc(-c3ccnc(N)n3)c(C)c2c1 [Example 181, COc1cccc(O)c1C(═O)NCc2ccc3sc(c(C)c3c2)-c4ccnc(N)n4] | – | –
14 | < 5 | < 5 | CC(=O)Nc1cccc(NC(=O)c2ccc3sc(-c4ccnc(N)n4)c(C)c3c2)c1 [Example 20, N-(3-Acetamidophenyl)-2-(2-aminopyrimidin-4-yl)-3-methylbenzo[b]thiophene-5-carboxamide] | – | –
15 | > 5 | < 5 | Cc1c(-c2ccnc(N)n2)sc2ccc(CNC(=O)C(O)CCl)cc12 (stereo not drawn) [Example 112, Cc1c(sc2ccc(CNC(═O)C(O)CCl)cc12)-c3ccnc(N)n3] | – | –
16 | < 5 | < 5 | Cc1c(-c2ccnc(N)n2)sc2ccc(CNC(=O)c3ccc(F)c([N+](=O)[O-])c3)cc12 [Example 231, Cc1c(sc2ccc(CNC(═O)c3ccc(F)c(c3)[N+]([O−])═O)cc12)-c4ccnc(N)n4] | – | –
17 | < 5 | < 5 | CC(=O)Oc1cccc(C(=O)NCc2ccc3sc(-c4ccnc(N)n4)c(C)c3c2)c1 [Example 210, CC(═O)Oc1cccc(c1)C(═O)NCc2ccc3sc(c(C)c3c2)-c4ccnc(N)n4] | – | –
18 | < 5 | < 5 | CCC(C(=O)NCc1ccc2sc(-c3ccnc(N)n3)c(C)c2c1)c1ccccc1 (stereo not drawn) [Example 169, CCC(C(═O)NCc1ccc2sc(c(C)c2c1)-c3ccnc(N)n3)c4ccccc4] | – | –

More lines, now with the values behind:

Row | Compound | IC50 [1, 3] [µM] | IC50 [2, 4] [µM] | IC50 ([1]; ROCK1 IC50, recombinant GST-tagged human ROCK1, luciferase-based ATP consumption) [µM] | IC50 ([2]; ROCK2 IC50, recombinant GST-tagged human ROCK2, luciferase-based ATP consumption) [µM]
19 | CC(=O)c1ccc(C(=O)NCc2ccc3sc(-c4ccnc(N)n4)c(C)c3c2)cc1 [Example 162, CC(═O)c1ccc(Cc1)C(═O)NCc2ccc3sc(c(C)c3c2)-c4ccnc(N)n4] | > 5 | < 5 | – | –
20 | Cc1c(-c2ccnc(N)n2)sc2ccc(CNC(=O)C3CCCCN3C(=O)OC(C)(C)C)cc12 (stereo not drawn) [Example 305, Cc1c(sc2ccc(CNC(═O)[C]3CCCCN3C(═O)OC(C)(C)C)cc12)-c4ccnc(N)n4] | > 5 | > 5 | – | –
21 | CCN(CC)CCNc1nccc(Nc2ccc3sc(-c4ccnc(N)n4)c(C)c3c2)n1 [Example 77, N^4-(2-(2-Aminopyrimidin-4-yl)-3-methylbenzo[b]thiophen-5-yl)-N^2-(2-(diethylamino)ethyl)pyrimidine-2,4-diamine] | < 5 | < 5 | – | –
22 | Cc1c(-c2ccnc(N)n2)sc2ccc(CNC(=O)c3ccc([N+](=O)[O-])c(O)c3)cc12 [Example 226, Cc1c(sc2ccc(CNC(═O)c3ccc(c(O)c3)[N+]([O−])═O)cc12)-c4ccnc(N)n4] | > 5 | < 5 | – | –
23 | Cc1c(-c2ccnc(N)n2)sc2ccc(CNC(=O)c3ccccn3)cc12 [Example 111, Cc1c(sc2ccc(CNC(═O)c3ccccn3)cc12)-c4ccnc(N)n4] | > 5 | < 5 | – | –
24 | COc1ccc(C(=O)NCc2ccc3sc(-c4ccnc(N)n4)c(C)c3c2)c(O)c1 [Example 183, COc1ccc(C(═O)NCc2ccc3sc(c(C)c3c2)-c4ccnc(N)n4)c(O)c1] | > 5 | < 5 | – | –
25 | Cc1c(-c2ccnc(N)n2)sc2ccc(CNC(=O)c3ccc(N(C)C=O)cc3)cc12 [Example 205, CN(C═O)c1ccc(cc1)C(═O)NCc2ccc3sc(c(C)c3c2)-c4ccnc(N)n4] | < 5 | < 5 | – | –
26 | Cc1c(-c2ccnc(N)n2)sc2ccc(CNC(=O)c3ncc[nH]3)cc12 [Example 103, Cc1c(sc2ccc(CNC(═O)c3ncc[nH]3)cc12)-c4ccnc(N)n4] | < 5 | < 5 | – | –
27 | Cc1c(-c2cc(N)nc(N)n2)sc2ccc(Cl)cc12 [Example 9, 6-(5-Chloro-3-methylbenzo[b]thiophen-2-yl)pyrimidine-2,4-diamine] | > 5 | > 5 | – | –
28 | Cc1c(-c2ccnc(N)n2)sc2ccc(CNC(=O)C(C)c3ccc(CC(C)C)cc3)cc12 (stereo not drawn) [Example 274, CC(C)Cc1ccc(cc1)C(C)C(═O)NCc2ccc3sc(c(C)c3c2)-c4ccnc(N)n4] | > 5 | > 5 | – | –
29 | Cc1c(-c2ccnc(N)n2)sc2ccc(CNC(=O)CC#N)cc12 [Example 97, Cc1c(sc2ccc(CNC(═O)CC#N)cc12)-c3ccnc(N)n3] | < 5 | < 5 | – | –
30 | Cc1c(-c2ccncc2)sc2ccc(Cl)cc12 [Example 4, 4-(5-Chloro-3-methylbenzo[b]thiophen-2-yl)pyridine] | > 5 | > 5 | – | –
31 | Cc1c(-c2ccnc(N)n2)oc2ccccc12 [Example 3, 4-(3-Methylbenzofuran-2-yl)pyrimidin-2-amine] | < 5 | < 5 | – | –
32 | Nc1nccc(-c2cc3ccccc3s2)n1 [Example 2, 4-(Benzo[b]thiophen-2-yl)pyrimidin-2-amine] | < 5 | < 5 | – | –
33 | Cc1c(-c2ccnc(N)n2)sc2ccc(Cc3cccc(C(=O)O)c3)cc12 [Example 41, 3-((2-(2-Aminopyrimidin-4-yl)-3-methylbenzo[b]thiophen-5-yl)methyl)benzoic acid] | < 5 | < 5 | – | –
34 | COc1ccc(C(=O)NCc2ccc3sc(-c4ccnc(N)n4)c(C)c3c2)c(OC)c1 [Example 219, COc1ccc(C(═O)NCc2ccc3sc(c(C)c3c2)-c4ccnc(N)n4)c(OC)c1] | > 5 | < 5 | – | –
35 | CC(=O)Oc1ccccc1C(=O)NCc1ccc2sc(-c3ccnc(N)n3)c(C)c2c1 [Example 211, CC(═O)Oc1ccccc1C(═O)NCc2ccc3sc(c(C)c3c2)-c4ccnc(N)n4] | < 5 | < 5 | – | –
36 | Cc1c(-c2ccnc(N)n2)sc2ccc(Nc3ccnc(O)n3)cc12 [Example 75, 4-(2-(2-Aminopyrimidin-4-yl)-3-methylbenzo[b]thiophen-5-ylamino)pyrimidin-2-ol] | < 5 | < 5 | – | –
37 | Cc1c(-c2ccnc(N)n2)sc2ccc(CNC(=O)c3cc(Br)ccc3Cl)cc12 [Example 314, Cc1c(sc2ccc(CNC(═O)c3cc(Br)ccc3Cl)cc12)-c4ccnc(N)n4] | – | – | < 5 | < 5
38 | Cc1c(-c2ccnc(N)n2)sc2ccc(CNC(=O)c3ccc(C(C)(C)C)cc3)cc12 [Example 204, Cc1c(sc2ccc(CNC(═O)c3ccc(cc3)C(C)(C)C)cc12)-c4ccnc(N)n4] | < 5 | < 5 | – | –
39 | COC(=O)c1ccc(C(=O)NCc2ccc3sc(-c4ccnc(N)n4)c(C)c3c2)cc1 [Example 209, COC(═O)c1ccc(cc1)C(═O)NCc2ccc3sc(c(C)c3c2)-c4ccnc(N)n4] | < 5 | < 5 | – | –
